Columns and labels:
[1] = tested on: Rats: Wistar femelles; test: Atherogenic diet (modified Aubert technique): biochemical examinations and atherogenic risk; assay type: in vivo, Rat Wistar; set-up: score général Biochimie / Risque athérogène Score Total: scale not given here; conditions: 100 mg/kg
Description: (§1) La technique utilisée est celle, légèrement modifiée, de AUBERT D., FERAUD J.C., LACAZE B., PEPINO., PANAK E. et PODESTA M. "Athérogénèse expérimentale chez le Rat Wistar". ATHEROSCLEROSIS 2Q (1974) 263 - 280.
(§2) • - Rats: Wistar femelles, E.O.P.S. en provenance de l'élevage EVIC-CEBA. • - Poids corporel: 160 180 g au départ de l'étude • - Alimentation: UAR A03, enrichi en cholestérol (0,5 %) et en Acide chloique (0,5 %). • - Eau de boisson: eau de ville. • - 15 animaux par lot et par cage MAKROLON SAFI® de 59 x 38,5 cm sur litière de copeaux de bois blanc dépoussiérés. • - Cages placées dans un module animalerie climatisé (20°C * 1°C), à l'humidité constante (50 % ± 10 %). Durée d'éclairement: 12 heures par jour (7 h à 19 h). • - Administration des produits: Après 15 jours de régime athéromateux, on leur administre par voie orale pendant 4 jours 250 000 Ul/kg de vitamine D2 (Stérogyl 15 H) en solution dans l'huile d'olive. On administre ensuite les produits à étudier pendant 4 semaines dès la fin de l'administration de l'agent lésionnel.
(§3) L'étude porte sur 5 Lots de 15 rats (tableau N° IV)
En fin d'étude, on pratique sur tous les animaux survivants les examens suivants: • - Cholestérol total, • - Cholestérol estérifié, • - Cholestérol HDL • - Cholestérol LDL (évaluation), • - Lipides totaux, • - Triglycérides.

[2] = tested on: Rats: Wistar femelles; test: Atherogenic diet (modified Aubert technique): macroscopic examination of the aorta; assay type: in vivo, Rat Wistar; conditions: 100 mg/kg
Description: as §1, §2
En fin d'étude, tous les animaux sont sacrifiés par ponction subtotale du sang à l'aorte abdominale après anesthésie au pentobarbital sodique. On prélève le coeur, le foie et l'aorte sur laquelle on effectue la cotation du pouvoir athérogène. Pour ce faire, les aortes sont coupées longitudinalement puis étalées pour permettre une vue d'ensemble du revêtement endothélial depuis les valvules aortiques jusqu'à la bifurcation du tronc coeliaque (segment inférieur de l'aorte thoracique).
L'aorte est séparée en 2 zones: • - Zone 1: Valvules aortiques - premières artères intercostales • - Zone 2: premières artères intercostales - bifurcation du tronc coeliaque.
L'intensité des dépôts athéromateux est évaluée selon les critères suivants: • - Stade 0: Absence de dépôts • - Stade 1: Dépôts discrets ([…]) peu nombreux • - Stade 2: Dépôts discrets nombreux • - Stade 3: Dépôts importants (> 1 mm) nombreux • - Stade 4: Dépôts très importants ou très nombreux mais laissant quelques zones non infiltrées. • - Stade 5: Dépôts sur tout l'endothélium.
Deux paramètres sont à prendre en considération: • 1. Le nombre d'animaux présentant des lésions macroscopiques, dont le pourcentage d'animaux atteints. • 2. L'intensité des lésions observées cotées selon les indications fournies précédemment.

[3] = tested on: Rats: Wistar femelles; test: Atherogenic diet (modified Aubert technique): histopathological examination; assay type: in vivo, Rat Wistar; conditions: 100 mg/kg; three parameters scored relative to Clofibrate
Description: as §1, §2
Les aortes, les foies et les coeurs sont fixés au Bouitaqueux et inclus à la paraffine après passage par les alcools à concentration croissante et par le toluène.
Les foies sont colorés par la technique à l'hématéine-éosine. Les aortes sont colorées par: • - la technique à l'orcéine - vert lumière afin de mettre en évidence les altérations structurales des lames élastiques. • - la technique à l'acide périodique plus réactif de Schiff pour déceler les dépôts de mucopolysaccharides, • - la technique à l'hématéine plus éosine afin de mettre en évidence les dépôts de calcium.
L'intensité des altérations observées et le degré d'athéromatose sont indiquées par l'un des signes:
• - Pas d'athéromatose 0 • = Très léger degré d'athéromatose 0,5 • + Léger degré d'athéromatose 1 • ++ Moyen degré d'athéromatose 2 • +++Important degré d'athéromatose 3
Les zones athéromateuses sont dénombrées sur une longueur identique pour chacune des aortes examinées. […]

[4] = tested on: Rats: Wistar femelles; test: Atherogenic diet (modified Aubert technique): mortality, body weight, tolerance, overall score; assay type: in vivo, Rat Wistar; conditions: 100 mg/kg
Protocol: as §2, §3
• - Le comportement et l'[…] pondérale des animaux sont étudiés par l'observation quotidienne et les pesées hebdomadaires. L'étude de l'évolution pondérale ne montre pas de différence significative entre les différents lots. C'est un indice de bonne tolérance du traitement. • - La moralité est notée dans chaque lot; elle peut atteindre 30 % des animaux ce qui nécessite des lots de 15 animaux. L'administration chronique de 100 mg/kg de Clofibrate correspond à la dose maximale tolérée par le Rat sain selon nos expériences personnelles.
Les scores obtenus par les différents produits étudiés sont les suivants (Tableau V)

[5] = tested on: Rat Wistar; test: Hyperlipidaemia induced by Triton WR 1339 injection; assay type: in vivo; set-up: Triglycérides, score par rapport au Procétofène 250 mg/kg: scale not given here
Description: L'hyperlipidémie par injection de Triton WR 1339 (marque de fabrique), réalisée chez le Rat Wistar, est antagonisée ou diminuée par l'administration d'agents hypolipémiants.
• - Rats Wistar mâles. • - Poids corporel: 150 -180 grammes. • - Animaux E.O.P.S. (Exempts d'Organisme Pathogène Spécifique). • - Alimentation UAR A04 • - Eau de boisson à volonté • - 6 animaux par lot de traitement et par cage MAKROLON SAFI (marque de fabrique) 60 X 40 cm, sur litière de copeaux de bois dépoussiérés • - Cages placées dans un module animalerie climatisé (19 à 21°C) à degré hygrométrique constant (40 à 60 p.100), dans lequel l'air est renouvelé 10 fois par heure, 12 heures d'éclairement par jour.
• . - 18 h: mise à jeun. • . Temps 0 - administration du Triton WR 1339® (400 mg/kg IP.). • . + 10 mn: administration du produit étudié. • - + 6 h: 1er prélèvement sanguin au sinus rétro-orbitaire. • . + 24 h: 2ème prélèvement sanguin au sinus rétro-orbitaire.
L'essai comporte 8 lots dont un lot témoin (animaux sains) et un lot témoin triton (Tableau I).

[6] = 4 weeks, score relative to Clofibrate (Base 1)
[7] = 250 mg/kg, 6 heures after Triton
[8] = 250 mg/kg, 24 heures after Triton
[9] = 500 mg/kg, 6 heures after Triton
[10] = 500 mg/kg, 24 heures after Triton

## CC(C)OC(=O)C(C)(C)Oc1ccc(C(=O)c2ccc(Cl)cc2)cc1 [Fenclofibrate]
[1]
  Cholesterol LDL Cholesterol HDL Score/Clofibrate: 0.16
  Cholesterol T/ Cholesterol HDL Score/Clofibrate: 0.07
  Risque athérogène Score Total: 0.23
[1]; [6]
  Cholesterol E Score: 0.40
  Cholesterol HDL Score: 0.04
  Cholesterol LDL Score: 0.16
  Cholesterol T Score: 0.02
  Lipides totaux Score: 0.29
[1]; atherogenic risk ratio
  Cholesterol LDL Cholesterol HDL Score: 21.44
  Cholesterol T/ Cholesterol HDL Score: 25.32
[1]; sum of the individual biochemical scores
  score général Biochimie: 1.98
[2]
  Animaux Atteints Score Clofibrate: 0.92
  Intensité des lésions Score Clofibrate: 1.25
  Observations Macroscopiques Score Total: 2.17
[2]; animals with macroscopic lesions
  Animaux Atteints %: 83.33%
[2]; scale Stade 0 to Stade 5
  Intensité des lésions Cotation: 1.83
[3]
  Histologie score: 2.13
[4]; lots of 15 rats on atherogenic diet
  taux de mortalité: 3/15
[4]; sum of Biochimie, Risque athérogène, Macroscopie, Histologie
  Score Total: 6.51

## CC(C)OC(=O)C(C)(C)Oc1ccc(C(=O)c2ccc(Cl)cc2)cc1 [Procétofène, reference compound]
[5]; [7]
  Chol. HDL/ LDL, score par rapport au Procétofène 250 mg/kg: 1.00
  Chol. Total, score par rapport au Procétofène 250 mg/kg: 1.00
  Lipides Totaux, score par rapport au Procétofène 250 mg/kg: 1.00
  Score Total par rapport au Procétofène 250 mg/kg: 4.00
  Triglycérides, score par rapport au Procétofène 250 mg/kg: 1.00
[5]; [8]
  Chol. HDL/ LDL, score par rapport au Procétofène 250 mg/kg: 1.00
  Chol. Total, score par rapport au Procétofène 250 mg/kg: 1.00
  Lipides Total, score par rapport au Procétofène 250 mg/kg: 1.00
  Score Total par rapport au Procétofène 250 mg/kg: 4.00
  Triglycérides, score par rapport au Procétofène 250 mg/kg: 1.00
[5]; [9]
  Chol. HDL/ LDL, score par rapport au Procétofène 250 mg/kg: 1.53
  Chol. Total, score par rapport au Procétofène 250 mg/kg: 1.65
  Lipides Totaux, score par rapport au Procétofène 250 mg/kg: 1.65
  Score Total par rapport au Procétofène 250 mg/kg: 5.12
[5]; [10]
  Chol. HDL/ LDL, score par rapport au Procétofène 250 mg/kg: 0.30
  Lipides Total, score par rapport au Procétofène 250 mg/kg: 0.85
  Score Total par rapport au Procétofène 250 mg/kg: 3.33
